From patent publication US11000033B2, “Ketone or oxime compound, and herbicide” (NISSAN CHEMICAL CORPORATION, priority 2014, dated 2021)

Legend:
Type in all cases: in vivo
rice plant = assay: Test Example 5: effect on crop by foliage application, plastic box (symbol b); conditions: 320 g/ha, 3 weeks after application
In short: (§1)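 Crop seed is sown alongside grass and broadleaf weed species in spots in sterilized diluvial soil, then covered to a depth of about 1.5 cm. Plants grow in a greenhouse kept at 25° C. to 30° C.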

[1] = tested on: Echinochloa oryzacola Vasing.; assay: Test Example 2: herbicidal activity, application during weed generation in submerged conditions (symbol A); conditions: Table 23; application herbicide amount 320 g/ha; grade 0-5 by criteria of Test Example 1
Method: (§2) Herbicidal Activity Test by Application During Weed Generation in Submerged Conditions
(§3) After alluvial soil was placed into 1/10000 are of Wagner pot, water was poured and mixed to form a submerged condition having a water depth of 4 cm. Seeds of Echinochloa oryzacola Vasing., Scirpus juncoides, and Monochoria vaginalis were sowed in a mixed manner in the above pot and the pot was placed in the greenhouse of 25° C. to 30° C. to grow the plants. When Echinochloa oryzacola Vasing., Scirpus juncoides, and Monochoria vaginalis were grown to one leaf stage to two leaf stage, the emulsion agent of the compound of the present invention prepared in accordance with Formulation Example 2 was diluted with water so as to be a predetermined herbicide amount and the diluted emulsion agent was applied to the surface of the water. 3 weeks later from the herbicide application, the effect to each plant was investigated in accordance with the criteria of Test Example 1.

Veronica persica = assay: Test Example 5: herbicidal effect by foliage application, plastic box (symbol R); conditions: 320 g/ha, 3 weeks after application
In short: (§4)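 Greenhouse foliar test: seedlings at 14 days, grown 25° C. to 30° C. in sterilized diluvial soil; compound applied as an aqueous dilution of an emulsion; response read 3 weeks after spraying.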

Lolium multiflorum Lam. = assay: Test Example 5: herbicidal effect by foliage application, plastic box (symbol K); conditions: 320 g/ha, 3 weeks after application
In short: as §4

Setaria viridis = assay: Test Example 5: herbicidal effect by foliage application, plastic box (symbol G); conditions: 320 g/ha, 3 weeks after application
In short: as §4

Galium spurium = assay: Test Example 5: herbicidal effect by foliage application, plastic box (symbol Q); conditions: 320 g/ha, 3 weeks after application
In short: as §4

Chenopodium album = assay: Test Example 5: herbicidal effect by foliage application, plastic box (symbol O); conditions: 320 g/ha, 3 weeks after application
In short: as §4

Scirpus juncoides [2] = assay: Test Example 1: herbicidal activity, application before weed generation in submerged conditions (symbol B); conditions: application herbicide amount 320 g/ha
In short: (§5)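 Greenhouse growth at 25–30 °C lasted 3 weeks after treatment, when each weed was graded 0–5 by herbicidal ratio. Treatment was a diluted emulsion applied to the water surface of 4 cm-submerged alluvial soil on the sowing day.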

Avena fatua = assay: Test Example 5: herbicidal effect by foliage application, plastic box (symbol I); conditions: 320 g/ha, 3 weeks after application
In short: as §4

Digitaria ciliaris = assay: Test Example 5: herbicidal effect by foliage application, plastic box (symbol F); conditions: 320 g/ha, 3 weeks after application
In short: as §4

[3] = tested on: Echinochloa oryzacola Vasing.; assay: Test Example 1: herbicidal activity, application before weed generation in submerged conditions (symbol A); conditions: application herbicide amount 320 g/ha
In short: as §5

rapeseed = assay: Test Example 5: effect on crop by foliage application, plastic box (symbol g); conditions: 320 g/ha, 3 weeks after application
In short: as §1

transplanted rice plant = assay: Test Example 1: effect on crop, application before weed generation in submerged conditions (symbol a); conditions: application herbicide amount 320 g/ha
In short: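 Rice at 2.5 leaf stage transplanted into submerged soil (4 cm depth) sown with three weed species; herbicide applied before weed emergence.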

Amaranthus retroflexus = assay: Test Example 5: herbicidal effect by foliage application, plastic box (symbol N); conditions: 320 g/ha, 3 weeks after application
In short: as §4

corn = assay: Test Example 5: effect on crop by foliage application, plastic box (symbol c); conditions: 320 g/ha, 3 weeks after application
In short: as §1

Monochoria vaginalis [4] = assay: Test Example 1: herbicidal activity, application before weed generation in submerged conditions (symbol C); conditions: application herbicide amount 320 g/ha
In short: as §5

wheat = assay: Test Example 5: effect on crop by foliage application, plastic box (symbol e); conditions: 320 g/ha, 3 weeks after application
In short: as §1

Scirpus juncoides [5] = assay: Test Example 2: herbicidal activity, application during weed generation in submerged conditions (symbol B); conditions: Table 23; application herbicide amount 320 g/ha; grade 0-5 by criteria of Test Example 1
Method: as §2, §3

Monochoria vaginalis [6] = assay: Test Example 2: herbicidal activity, application during weed generation in submerged conditions (symbol C); conditions: Table 23; application herbicide amount 320 g/ha; grade 0-5 by criteria of Test Example 1
Method: as §2, §3

[7] = tested on: Echinochloa crus-galli var. crus-galli; assay: Test Example 5: herbicidal effect by foliage application, plastic box (symbol H); conditions: 320 g/ha, 3 weeks after application
In short: as §4

Abutilon theophrasti = assay: Test Example 5: herbicidal effect by foliage application, plastic box (symbol M); conditions: 320 g/ha, 3 weeks after application
In short: as §4

Alopecurus myosuroides = assay: Test Example 5: herbicidal effect by foliage application, plastic box (symbol J); conditions: 320 g/ha, 3 weeks after application
In short: as §4

Stellaria media = assay: Test Example 5: herbicidal effect by foliage application, plastic box (symbol P); conditions: 320 g/ha, 3 weeks after application
In short: as §4

beet = assay: Test Example 5: effect on crop by foliage application, plastic box (symbol f); conditions: 320 g/ha, 3 weeks after application
In short: as §1

Apera spica-venti = assay: Test Example 5: herbicidal effect by foliage application, plastic box (symbol L); conditions: 320 g/ha, 3 weeks after application
In short: as §4

soybean = assay: Test Example 5: effect on crop by foliage application, plastic box (symbol d); conditions: 320 g/ha, 3 weeks after application
In short: as §1

[8] = tested on: Echinochloa crus-galli var. crus-galli; assay: Test Example 3: herbicidal effect by foliage application, Wagner pot (symbol H); conditions: application herbicide amount 320 g/ha
In short: (§6)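 Alluvial soil was flooded to a depth of 0.1–0.5 cm, seeded with the weeds and rice, and kept in a greenhouse at 25–30 °C. After 14 days of growth, the foliage received a small-sprayer application of emulsion diluted to the intended rate; injury was rated at 3 weeks.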

Leptochloa chinensis = assay: Test Example 3: herbicidal effect by foliage application, Wagner pot (symbol D); conditions: application herbicide amount 320 g/ha
In short: as §6

[9] = tested on: directly sowed rice plant; assay: Test Example 3: effect on crop by foliage application, Wagner pot (symbol b); conditions: application herbicide amount 320 g/ha
In short: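 Alluvial soil in a 1/10000-are Wagner pot was flooded to a water depth of 0.1–0.5 cm. Echinochloa crus-galli var. crus-galli, Leptochloa chinensis, Cyperus difformis and rice were sown into it and grown in a greenhouse at 25–30 °C.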

## CC(CC1CC(O)=C(c2c(C)cc(C)cc2C)C1=O)=NOCc1c(F)cccc1Cl (stereo not shown) [1-115]
Rice plant
  b: directly sowed rice plant, effect on crop (criteria 0-5): 1 (Herbicidal ratio of 5% or higher and lower than 20%)
[1]
  Herbicidal effect grade, A: Echinochloa oryzacola Vasing.: 3 (Herbicidal ratio of 40% or higher and lower than 70%)
Veronica persica
  R: Veronica persica, herbicidal effect (criteria 0-5): 1 (Herbicidal ratio of 5% or higher and lower than 20%)
Lolium multiflorum Lam.
  K: Lolium multiflorum Lam., herbicidal effect (criteria 0-5): 3 (Herbicidal ratio of 40% or higher and lower than 70%)
Setaria viridis
  G: Setaria viridis, herbicidal effect (criteria 0-5): 1 (Herbicidal ratio of 5% or higher and lower than 20%)
Galium spurium
  Q: Galium spurium, herbicidal effect (criteria 0-5): 0 (Herbicidal ratio of 5% or lower (almost no effect))
Chenopodium album
  O: Chenopodium album, herbicidal effect (criteria 0-5): 0 (Herbicidal ratio of 5% or lower (almost no effect))
Scirpus juncoides [2]
  Herbicidal effect grade, B: Scirpus juncoides: 3 (Herbicidal ratio of 40% or higher and lower than 70%)
Avena fatua
  I: Avena fatua, herbicidal effect (criteria 0-5): 2 (Herbicidal ratio of 20% or higher and lower than 40%)
Digitaria ciliaris
  F: Digitaria ciliaris, herbicidal effect (criteria 0-5): 2 (Herbicidal ratio of 20% or higher and lower than 40%)
[3]
  Herbicidal effect grade, A: Echinochloa oryzacola Vasing.: 5 (Herbicidal ratio of 90% or more (almost completely withered))
rapeseed
  g: rapeseed, effect on crop (criteria 0-5): 5 (Herbicidal ratio of 90% or more (almost completely withered))
Transplanted rice plant
  Effect grade on crop, a: transplanted rice plant: 1 (Herbicidal ratio of 5% or higher and lower than 20%)
Amaranthus retroflexus
  N: Amaranthus retroflexus, herbicidal effect (criteria 0-5): 0 (Herbicidal ratio of 5% or lower (almost no effect))
corn
  c: corn, effect on crop (criteria 0-5): 0 (Herbicidal ratio of 5% or lower (almost no effect))
Monochoria vaginalis [4]
  Herbicidal effect grade, C: Monochoria vaginalis: 4 (Herbicidal ratio of 70% or higher and lower than 90%)
wheat
  e: wheat, effect on crop (criteria 0-5): 0 (Herbicidal ratio of 5% or lower (almost no effect))
Scirpus juncoides [5]
  Herbicidal effect grade, B: Scirpus juncoides: 2 (Herbicidal ratio of 20% or higher and lower than 40%)
Monochoria vaginalis [6]
  Herbicidal effect grade, C: Monochoria vaginalis: 0 (Herbicidal ratio of 5% or lower (almost no effect))
[7]
  H: Echinochloa crus-galli var. crus-galli, herbicidal effect (criteria 0-5): 1 (Herbicidal ratio of 5% or higher and lower than 20%)
Abutilon theophrasti
  M: Abutilon theophrasti, herbicidal effect (criteria 0-5): 0 (Herbicidal ratio of 5% or lower (almost no effect))
Alopecurus myosuroides
  J: Alopecurus myosuroides, herbicidal effect (criteria 0-5): 3 (Herbicidal ratio of 40% or higher and lower than 70%)
Stellaria media
  P: Stellaria media, herbicidal effect (criteria 0-5): 1 (Herbicidal ratio of 5% or higher and lower than 20%)
beet
  f: beet, effect on crop (criteria 0-5): 0 (Herbicidal ratio of 5% or lower (almost no effect))
Apera spica-venti
  L: Apera spica-venti, herbicidal effect (criteria 0-5): 4 (Herbicidal ratio of 70% or higher and lower than 90%)
soybean
  d: soybean, effect on crop (criteria 0-5): 0 (Herbicidal ratio of 5% or lower (almost no effect))

## CON=C(C)CC1CC(OCC(Cl)=CCl)=C(c2c(C)cc(C)cc2C)C1=O (stereo not shown) [1-166]
Rice plant
  b: directly sowed rice plant, effect on crop grade: 3 (Herbicidal ratio of 40% or higher and lower than 70%)
[1]
  Herbicidal effect grade, A: Echinochloa oryzacola Vasing.: 3 (Herbicidal ratio of 40% or higher and lower than 70%)
Veronica persica
  R: Veronica persica, herbicidal effect grade: 0 (Herbicidal ratio of 5% or lower (almost no effect))
Lolium multiflorum Lam.
  K: Lolium multiflorum Lam., herbicidal effect grade: 5 (Herbicidal ratio of 90% or more (almost completely withered))
Setaria viridis
  G: Setaria viridis, herbicidal effect grade: 1 (Herbicidal ratio of 5% or higher and lower than 20%)
Galium spurium
  Q: Galium spurium, herbicidal effect grade: 0 (Herbicidal ratio of 5% or lower (almost no effect))
Chenopodium album
  O: Chenopodium album, herbicidal effect grade: 0 (Herbicidal ratio of 5% or lower (almost no effect))
Scirpus juncoides [2]
  Herbicidal effect grade, B: Scirpus juncoides: 0 (Herbicidal ratio of 5% or lower (almost no effect))
[8]
  herbicidal effect on H (Echinochloa crus-galli var. crus-galli), grade 0-5: 4 (Herbicidal ratio of 70% or higher and lower than 90%)
Avena fatua
  I: Avena fatua, herbicidal effect grade: 5 (Herbicidal ratio of 90% or more (almost completely withered))
Leptochloa chinensis
  herbicidal effect on D (Leptochloa chinensis), grade 0-5: 4 (Herbicidal ratio of 70% or higher and lower than 90%)
Digitaria ciliaris
  F: Digitaria ciliaris, herbicidal effect grade: 1 (Herbicidal ratio of 5% or higher and lower than 20%)
[3]
  Herbicidal effect grade, A: Echinochloa oryzacola Vasing.: 5 (Herbicidal ratio of 90% or more (almost completely withered))
rapeseed
  g: rapeseed, effect on crop grade: 4 (Herbicidal ratio of 70% or higher and lower than 90%)
Transplanted rice plant
  Effect grade on crop, a: transplanted rice plant: 0 (Herbicidal ratio of 5% or lower (almost no effect))
Amaranthus retroflexus
  N: Amaranthus retroflexus, herbicidal effect grade: 0 (Herbicidal ratio of 5% or lower (almost no effect))
corn
  c: corn, effect on crop grade: 1 (Herbicidal ratio of 5% or higher and lower than 20%)
Monochoria vaginalis [4]
  Herbicidal effect grade, C: Monochoria vaginalis: 0 (Herbicidal ratio of 5% or lower (almost no effect))
wheat
  e: wheat, effect on crop grade: 1 (Herbicidal ratio of 5% or higher and lower than 20%)
Scirpus juncoides [5]
  Herbicidal effect grade, B: Scirpus juncoides: 0 (Herbicidal ratio of 5% or lower (almost no effect))
[9]
  effect on crop b (directly sowed rice plant), grade 0-5: 3 (Herbicidal ratio of 40% or higher and lower than 70%)
Monochoria vaginalis [6]
  Herbicidal effect grade, C: Monochoria vaginalis: 0 (Herbicidal ratio of 5% or lower (almost no effect))
[7]
  H: Echinochloa crus-galli var. crus-galli, herbicidal effect grade: 4 (Herbicidal ratio of 70% or higher and lower than 90%)
Abutilon theophrasti
  M: Abutilon theophrasti, herbicidal effect grade: 3 (Herbicidal ratio of 40% or higher and lower than 70%)
Alopecurus myosuroides
  J: Alopecurus myosuroides, herbicidal effect grade: 4 (Herbicidal ratio of 70% or higher and lower than 90%)
Stellaria media
  P: Stellaria media, herbicidal effect grade: 0 (Herbicidal ratio of 5% or lower (almost no effect))
beet
  f: beet, effect on crop grade: 0 (Herbicidal ratio of 5% or lower (almost no effect))
Apera spica-venti
  L: Apera spica-venti, herbicidal effect grade: 5 (Herbicidal ratio of 90% or more (almost completely withered))
soybean
  d: soybean, effect on crop grade: 1 (Herbicidal ratio of 5% or higher and lower than 20%)
